# Source: ChEMBL document CHEMBL1135356, “Multidrug resistant cancer cells susceptibility to cytotoxic taxane diterpenes from Taxus yunnanensis and Taxus chinensis” (2002)
# Activity calls are given as the source filed them. The rule behind the calls is not given here.
# Columns and labels:
# [1] = Cytotoxic activity of compound was evaluated against KB cell line.; format: functional; conditions: Homo sapiens, read-out: ED50 (the source's name)
# [2] = tested on: KB 3-1; assay: Cytotoxic activity of compound was evaluated against KB-VIN cells expressing (P-glycoprotein).; format: functional; conditions: Homo sapiens, KBVIN; read-out: ED50 (the source's name)
# [3] = Cytotoxic activity of compound was evaluated against drug resistant subline KB-7d cells; format: functional; conditions: Homo sapiens; read-out: ED50 (the source's name)
# [4] = Cytotoxic activity of compound was evaluated against KB cell line at conc. of 20 ug/mL; format: functional; conditions: Homo sapiens
# [5] = tested on: KB 3-1; assay: Cytotoxic activity of compound was evaluated against KB-VIN cells expressing (P-glycoprotein) at conc. of 20 ug/mL; format: functional; conditions: Homo sapiens, KBVIN
# [6] = tested on: KB; assay: Cytotoxic activity of compound was evaluated against KB cell line; NA denotes not active at conc. of 20 ug/mL.; format: functional, cell-based; conditions: Homo sapiens
# [7] = tested on: KB 3-1; assay: Cytotoxic activity of compound was evaluated against drug resistant subline KB-7d cells at conc. of 20 ug/mL; format: functional; conditions: Homo sapiens
# [8] = Cytotoxic activity of compound against IA-9 tumor cell line.; format: functional; conditions: Homo sapiens; read-out: ED50 (the source's name)
# [9] = tested on: U-87 MG; assay: Cytotoxic activity of compound against U-87-MG tumor cell line.; format: functional, U-87MG ATCC; conditions: Homo sapiens, read-out: ED50 (the source's name)
# [10] = tested on: MCF7; assay: Cytotoxic activity of compound against MCF-7 tumor cell line.; format: functional; conditions: Homo sapiens, read-out: ED50 (the source's name)
# [11] = tested on: HOS; assay: Cytotoxic activity of compound against HOS tumor cell line.; format: functional; conditions: Homo sapiens, read-out: ED50 (the source's name)
# [12] = tested on: A549; assay: Cytotoxic activity of compound against A-549 tumor cell line.; format: functional; conditions: Homo sapiens, read-out: ED50 (the source's name)
# [13] = tested on: HCT-8; assay: Cytotoxic activity of compound against HCT-8 tumor cell line.; format: functional; conditions: Homo sapiens, read-out: ED50 (the source's name)
# [14] = Cytotoxic activity of compound against KB cell lines.; format: functional; conditions: Homo sapiens, read-out: ED50 (the source's name)
# [15] = tested on: SK-MEL-2; assay: Cytotoxic activity of compound against SK-MEL-2 tumor cell line.; format: functional; conditions: Homo sapiens, read-out: ED50 (the source's name)
# [16] = tested on: KB 3-1; assay: Cytotoxic activity of compound was evaluated against KB-VIN cells at conc. of 20 ug/mL; format: functional; conditions: Homo sapiens, KBVIN
# [17] = Cytotoxic activity of compound against KB cell lines at conc. of 20 ug/mL; format: functional; conditions: Homo sapiens
# [18] = tested on: HCT-8; assay: Cytotoxic activity of compound against HCT-8 tumor cell line; NA denotes not active at conc. of 20 ug/mL.; format: functional, cell-based; conditions: Homo sapiens
# [19] = tested on: U-87 MG; assay: Cytotoxic activity of compound against U-87-MG tumor cell line at conc. of 20 ug/mL; format: functional, U-87MG ATCC; conditions: Homo sapiens
# [20] = tested on: A549; assay: Cytotoxic activity of compound against A-549 tumor cell line at conc. of 20 ug/mL; format: functional; conditions: Homo sapiens
# [21] = tested on: MCF7; assay: Cytotoxic activity of compound against MCF-7 tumor cell line at conc. of 20 ug/mL; format: functional; conditions: Homo sapiens
# [22] = Cytotoxic activity of compound against IA-9 tumor cell line. at conc. of 20 ug/mL; format: functional; conditions: Homo sapiens
# [23] = tested on: HOS; assay: Cytotoxic activity of compound against HOS tumor cell line at conc. of 20 ug/mL; format: functional; conditions: Homo sapiens
# [24] = tested on: SK-MEL-2; assay: Cytotoxic activity of compound against SK-MEL-2 tumor cell line at conc. of 20 ug/mL; format: functional; conditions: Homo sapiens
Compound,EC50 [1],EC50 [2],EC50 [3],also measured
C=C1[C@@H](OC(=O)/C=C/c2ccccc2)CC[C@@]2(C)[C@@H](OC(C)=O)[C@H](OC(C)=O)[C@@]34[C@H](C)C(=O)C[C@@H]([C@@H](OC(C)=O)C132)C4(C)C (some centres undefined),12.1 µg/mL,8.7 µg/mL,7.8 µg/mL,
C=C1[C@@H](OC(=O)/C=C/c2ccccc2)C[C@H](OC(C)=O)[C@]2(C)[C@@H]1C[C@@H]1C[C@H](OC(C)=O)C(C)=C([C@@H](OC(C)=O)[C@@H]2OC(C)=O)C1(C)C,4.8 µg/mL,2.4 µg/mL,3.5 µg/mL,
CC(=O)O[C@H]1CC[C@@]2(C)C[C@H](OC(C)=O)C3=C(C)CC(O)[C@@H]([C@@H](OC(C)=O)[C@@H]2C1)C3(C)C (some centres undefined),> 20 µg/mL,17.3 µg/mL,9.6 µg/mL,inhibition at 20 µg/mL [4]: 45%
CC(=O)OC/C1=C\[C@H](OC(C)=O)[C@]2(C)C[C@H](OC(C)=O)C(C)=C([C@@H](OC(C)=O)/C(OC(C)=O)=C(/C)[C@@H](OC(C)=O)C[C@@H]1OC(=O)/C=C/c1ccccc1)C2(C)C,16.6 µg/mL,13.3 µg/mL,10 µg/mL,
CC(=O)O[C@H]1C(=O)[C@@]2(C)C/C(=C\[C@H](OC(C)=O)[C@@H]3C[C@H](OC(C)=O)C(C)=C1C3(C)C)[C@@H](OC(C)=O)C[C@@H]2OC(C)=O,,> 20 µg/mL,> 20 µg/mL,inhibition at 20 µg/mL [5]: 5%; ED50 [6]: inactive; inhibition at 20 µg/mL [7]: 22%
C=C1[C@@H](OC(C)=O)CC[C@@]2(C)C[C@H](OC(C)=O)C3=C(C)C[C@H](OC(=O)[C@@H](C)C(C)O)[C@@H]([C@@H](OC(C)=O)[C@H]12)C3(C)C (some centres undefined),9.8 µg/mL,8.6 µg/mL,4.3 µg/mL,
COc1ccc(-c2cc(=O)c3c(O)cc(OC)cc3o2)c(-c2c(O)cc(O)c3c(=O)cc(-c4ccc(O)cc4)oc23)c1,,> 20 µg/mL,,EC50 [8]: 6 µg/mL; inhibition at 20 µg/mL [5]: 21%; EC50 [9]: 7 µg/mL; EC50 [10]: 7.5 µg/mL; EC50 [11]: 8 µg/mL; EC50 [12]: 5.5 µg/mL; EC50 [13]: 8.5 µg/mL; EC50 [14]: 7.5 µg/mL; EC50 [15]: 7 µg/mL
C=C1[C@@H](OC(=O)/C=C/c2ccccc2)CC[C@@]2(C)[C@@H](OC(C)=O)[C@H](OC(C)=O)C3=C(C)[C@@H](OC(C)=O)C[C@@H]([C@@H](O)[C@H]12)C3(C)C,12.5 µg/mL,11 µg/mL,9.4 µg/mL,
C=C1[C@@H](OC(=O)/C=C/c2ccccc2)CC[C@@]2(C)[C@@H](O)[C@H](OC(C)=O)[C@@]34[C@H](C)C(=O)C[C@@H]([C@@H](OC(C)=O)C132)C4(C)C (some centres undefined),7.7 µg/mL,6.4 µg/mL,6.1 µg/mL,
C=C1[C@@H](OC(=O)/C=C/c2ccccc2)C[C@H](OC(C)=O)[C@@]2(CCOC(C)=O)[C@@H](OC(C)=O)[C@H](OC(C)=O)[C@]3(O)[C@@]4(C)CO[C@]3(C)C(=O)C[C@H]4[C@@H](OC(C)=O)[C@H]12,6.2 µg/mL,17 µg/mL,4.6 µg/mL,
CC(=O)O[C@H]1C[C@H]2[C@@H](OC(C)=O)/C=C3\C[C@@](C)([C@@H](OC(C)=O)C[C@@H]3OC(C)=O)[C@@H](O)C(=O)C(=C1C)C2(C)C,> 20 µg/mL,> 21 µg/mL,> 28 µg/mL,inhibition at 20 µg/mL [4]: 10%; inhibition at 20 µg/mL [16]: 21%; inhibition at 20 µg/mL [7]: 28%
C=C1[C@@H](OC(=O)/C=C/c2ccccc2)C[C@H](OC(C)=O)[C@@]2(C)[C@@H](OC(C)=O)[C@H](OC(C)=O)C3=C(C)[C@@H](OC(C)=O)C[C@@H]([C@@H](OC(C)=O)[C@H]12)C3(C)C,16 µg/mL,16.2 µg/mL,14.2 µg/mL,
C=C1[C@@H](OC(=O)/C=C/c2ccccc2)C[C@H](OC(C)=O)[C@@]2(C)[C@@H](OC(C)=O)[C@H](OC(C)=O)C3=C(C)C(=O)C[C@@H]([C@@H](OC(C)=O)[C@H]12)C3(C)C,3.9 µg/mL,3.6 µg/mL,4.1 µg/mL,
COc1ccc(-c2cc(=O)c3c(O)cc(O)c(-c4cc(OC)ccc4-c4cc(=O)c5c(O)cc(OC)cc5o4)c3o2)cc1,,> 20 µg/mL,,inhibition at 20 µg/mL [17]: 12%; inhibition [18]: inactive; EC50 [8]: > 20 µg/mL; inhibition at 20 µg/mL [5]: 9%; EC50 [9]: > 20 µg/mL; inhibition at 20 µg/mL [19]: 17%; inhibition at 20 µg/mL [20]: 58%; EC50 [10]: > 20 µg/mL; EC50 [11]: > 20 µg/mL; inhibition at 20 µg/mL [21]: 22%; EC50 [12]: > 20 µg/mL; inhibition at 20 µg/mL [22]: 44%; inhibition at 20 µg/mL [23]: 25%; inhibition at 20 µg/mL [24]: 9%; EC50 [14]: > 20 µg/mL; EC50 [15]: > 20 µg/mL
